Measured values taken from patent publication US20130150330A1, “DECOQUINATE PRODRUGS” (UNIVERSITY OF KANSAS, priority 2011, published 2013).

Assay: Solubility in water, increasing amounts added to 1 mL deionized water
Assay type: physicochemical
Details: decoquinate without the prodrug moiety, comparison
Experimental: Comparatively, decoquinate without the prodrug moiety is practically insoluble in water (<0.05 mg/ml). Improved solubility in water allows administration of the decoquinate prodrug by the intravenous and intramuscular routes. Additionally, water solubility also makes oral administration feasible by improving absorption from the GI tract.

solubility: < 50 µg/mL
Structure (SMILES): CCCCCCCCCCOc1cc2c(O)c(C(=O)OCC)cnc2cc1OCC [decoquinate, ethyl 6-(decyloxy)-7-ethoxy-4-oxo-1,4-dihydroquinoline-3-carboxylate]
